System: Human fibroblasts
Test: Stimulation of collagen synthesis measured by incorporation of tritiated proline in fibroblast collagenic fractions
Assay type: cell-based
Conditions: 72 hours of treatment
Experimental: The stimulation of collagen synthesis by peptides of the present invention was evaluated by measuring the incorporation of tritiated proline in fibroblasts collagenic fractions. The assay was conducted as follows. Human fibroblasts (obtained from the human biopsy of a person) were seeded in 24-well plates at approximately 40,000 cells per well in 1 ml of culture medium. The culture medium contained DMEM (Invitrogen S.a.r.l., Cergy Pontoise, France) supplemented with 10% Fetal Calf Serum (FCS, Cambrex Bio Science Paris S.a.r.l., Emerainville, France), 1% Glutamax (Invitrogen S.a.r.l.), 4 μg/ml gentamicine (Invitrogen S.a.r.l.), and 2.5 μg/ml Fungizone (Invitrogen S.a.r.l.). Cells were placed at 37° C. under 5% CO2 in a humidified atmosphere for 72 hours.
The culture medium was the removed and replaced with 1 ml of either: (i) incubation medium alone (untreated control); (ii) incubation medium further containing 1 ng/ml TGFb1 (R&D Systems Europe, Lille, France) for use as a stimulated positive control; or (iii) incubation medium further containing one of the tested peptides at a concentration of 1 μg/ml or 10 μg/ml. The incubation medium contained DMEM supplemented with 2% FCS, 1% Glutamax, 4 μg/ml gentamicine, 2.5 μg/ml Fungizone, 50 μg/ml ascorbic acid, 50 μg/ml b-aminoproionitrile, and 3.4 μg/ml a ketoglutarate.
During the last 24 hours of incubation, five μCi of tritiated proline (L-2,3-3H proline, Amersham Biosciences Europe, Saclay, France) was also added to each well. Each condition (untreated control, positive control and tested peptide) was performed in triplicate. In order to normalize the results, the same experiment was performed in parallel, except that tritiated proline was omitted. At the end of the treatment, cells were counted with a coulter counter. After 72 hours of treatment, incubation medium (supernatants) were collected in 2 ml microtubes and frozen at −20° C.
In order to perform the collagen extraction, 1 ml of cold 20% TCA (Sigma-Aldrich, Lyon, France) was added to 1 ml of supernatant. The samples were then vortexed, incubated for 5 minutes (min) at −20° C., and let stand on ice for 30 min. The samples were then centrifuged (2300 g, 5 min, 4° C.). The supernatants were then eliminated, and the pellets were rinsed with 1 ml of cold 5% TCA, vortexed, and centrifuged (2300 g, 5 min, 4° C.). The pellets were then rinsed twice with 5% TCA following the same procedure as described above. The pellets were then dissolved in 0.3 ml of 0.05 N NaOH and neutralized with 0.1N HCl to reach pH 6-8. Then, 0.2 ml of protein solution was incubated for 2 hours at 37° C. in 2×Tris HCl Buffer containing 10 units of collagenase activity (Clostridium hystolyticum Type III collagenase, Sigma-Aldrich, Lyon, France).
The enzymatic reaction was then stopped by precipitation with 500 μl of 15% TCA and 500 μl of 0.75% tannic acid. Samples were then incubated 30 min on ice. The precipitates were then centrifuged (2300 g, 5 min, 4° C.). The supernatants containing collagen fractions were collected, and scintillation liquid (Ecolume ICN) was added to each sample (5 ml to 100 μl sample). Then, radioactivity was measured in a β-scintillation counter.
The rate of collagen synthesis was calculated as follows: Synthesis rate=(number of dpm/cell number)*1000
The percentage of stimulation was calculated as follows: % of stimulation=[(synthesis rate in sample-synthesis rate in control)/(synthesis rate in control)]*100.

[1] = peptide at 1 ug/ml in incubation medium
[2] = peptide at 10 ug/ml in incubation medium

Row | Substance | Percent stimulation vs. control (1 ng/ml in incubation medium, positive control) [%] | Percent stimulation vs. control (1 ng/ml in incubation medium, positive control, listed as TGFb) [%] | Percent stimulation vs. control [1] [%] | Percent stimulation vs. control (peptide at 1 ug/ml in incubation medium, listed as TRNDKL) [%] | Percent stimulation vs. control [2] [%] | Percent stimulation vs. control (peptide at 10 ug/ml in incubation medium, listed as TRNDKL) [%] | Percent stimulation vs. control (peptide at 1 ug/ml in incubation medium, listed as VFTRN) [%] | Percent stimulation vs. control (peptide at 10 ug/ml in incubation medium, listed as VFTRN) [%]
1 | TGF b: potent stimulator of collagen synthesis in dermal fibroblast used as positive control [reference compound] | 45.7 | 45 |  |  |  |  |  | 
2 | H2-Thr-Arg-Asn-Asp-Lys-Leu-OH (H-TRNDKL-OH) [Peptide 2] |  |  | 23.5 | 25 | 42.6 | 42 |  | 
3 | H2-Val-Arg-Phe-Thr-Arg-Asn-OH (H-VRFTRN-OH) [Peptide 1] |  |  | 14.8 |  | 43.1 |  | 15 | 43
